These results are taken from publication PMC10496123, “Potent Antifungal Activity of Penta-O-galloyl-β-D-Glucose against Drug-Resistant Candida albicans, Candida auris, and Other Non-albicans Candida Species” (ACS Infectious Diseases, 2023).

A word on the MIC: it is the lowest concentration found to suppress growth. A high value points to a need for much substance.

Test [1] relates to Candida albicans. Briefly: Growth inhibition by CLSI microbroth dilution. To be noted: Candida albicans, >90% growth inhibition, 48 h. In kind it is cell-based. Background: Dilution methods test growth across graded concentrations, often in twofold steps.
The test system of another test is Candida parapsilosis. Briefly: Growth inhibition by CLSI microbroth dilution. To be noted: 48 h, >90% growth inhibition. In kind it is cell-based.
The subject of another test is Candida glabrata. Briefly: Growth inhibition by CLSI microbroth dilution. To be noted: Nakaseomyces glabratus, 48 h, >90% growth inhibition. In kind it is cell-based.
For the next test, the system named is Candida auris. Briefly: Growth inhibition by CLSI microbroth dilution. In kind it is cell-based. To be noted: Candidozyma auris, 48 h.
Test [2] concerns C. albicans wild type (CAF2-1) and cdr1Δ/Δ cdr2Δ/Δ mdr1Δ/Δ flu1Δ/Δ. Briefly: microbe, parasite or virus in culture. In kind it is cell-based, Candida albicans. To be noted: for MIC90: Candida albicans, 72 h, RPMI-1640, 72 h, 30 °C, OD600.
Another test deals with C. albicans. Also noted: method as in PMID 12760852. To be noted: 6 months of treatment in vitro; cited from earlier work.
Test [3] deals with Candida albicans. Set-up: method as in PMID 15790671. To be noted: addition of both Fe^2+ and Fe^3+; cited from earlier work.
Test [4] relates to C. albicans wild type (SN95, SN152) and ire1Δ/Δ, hap43Δ/Δ, rim101Δ/Δ. Briefly: microbe, parasite or virus in culture. In kind it is cell-based, Candida albicans. To be noted: mutants versus wild type.
Setting [5] is: strain AR Bank #0381, >90% growth inhibition.
Where [6] appears, read: strain AR Bank #0387, >90% growth inhibition.
Setting [7] is: strain AR Bank #0390, >90% growth inhibition.

Converted amounts (≈) assume the structure as drawn.

`C[C@@H]1[C@H](O)[C@@H](C)/C=C/C=C/C=C/C=C/C=C/C=C/C=C/[C@H](O[C@@H]2O[C@H](C)[C@@H](O)[C@H](N)[C@@H]2O)C[C@@H]2O[C@](O)(C[C@@H](O)C[C@@H](O)[C@H](O)CC[C@@H](O)C[C@@H](O)CC(=O)O[C@H]1C)C[C@H](O)[C@H]2C(=O)O` [AMB, amphotericin B]: the MIC in the test on Candida albicans [1] (ATCC90028, strain ATCC 90028) worked out at 1 µg/mL (≈ 1.08 µM); against Candida albicans [1] (strain MH12), 1 µg/mL (≈ 1.08 µM); with Candida parapsilosis (strain AR Bank #0335), 1 µg/mL (≈ 1.08 µM); in the test with Candida parapsilosis (strain AR Bank #0337), 1 µg/mL (≈ 1.08 µM); against Candida parapsilosis (strain AR Bank #0338) it was 1 µg/mL (≈ 1.08 µM); with Candida parapsilosis (strain AR Bank #0339), 2 µg/mL (≈ 2.16 µM). Further, the MIC amounted to 1 µg/mL (≈ 1.08 µM) in the test with Candida glabrata (strain AR Bank #0325); 1 µg/mL (≈ 1.08 µM) in the test on Candida glabrata (strain AR Bank #0326); 1 µg/mL (≈ 1.08 µM) against Candida auris (setting [5]); 0.5 µg/mL (≈ 0.541 µM) against Candida auris (setting [6]); 2 µg/mL (≈ 2.16 µM) with Candida auris (setting [7]).
As for `OC(Cn1cncn1)(Cn1cncn1)c1ccc(F)cc1F` [FLC, fluconazole], the MIC in the test on Candida albicans [1] (ATCC90028, strain ATCC 90028) is 0.25 µg/mL (≈ 0.816 µM); against Candida albicans [1] (strain MH12) it was more than 8 µg/mL; with Candida parapsilosis (strain AR Bank #0335), more than 8 µg/mL; with Candida parapsilosis (strain AR Bank #0337), more than 8 µg/mL; against Candida parapsilosis (strain AR Bank #0338) it was more than 8 µg/mL; against Candida parapsilosis (strain AR Bank #0339), more than 8 µg/mL. The MIC with Candida glabrata (strain AR Bank #0325) is more than 8 µg/mL; against Candida glabrata (strain AR Bank #0326), 4 µg/mL (≈ 13.1 µM); in the test on Candida auris (setting [5]), 4 µg/mL (≈ 13.1 µM); against Candida auris (setting [6]), 1 µg/mL (≈ 3.27 µM); against Candida auris (setting [7]), more than 8 µg/mL. In addition, the MIC90 in test [2] (Wild type (CAF2-1)) was more than 5 µg/mL; in test [2] (cdr1Δ/Δ cdr2Δ/Δ mdr1Δ/Δ flu1Δ/Δ) it was 0.16 µg/mL (≈ 0.522 µM). Also, in test [2] (mutant versus wild type), the “Effect of absence of major efflux pumps (CDR1, CDR2, FLU1, MDR1) on sensitivity” value is “hypersensitivity”.
For `CC(=O)N1CCN(c2ccc(OCC3COC(Cn4ccnc4)(c4ccc(Cl)cc4Cl)O3)cc2)CC1` (stereo not drawn) [KTC, ketoconazole], the MIC against Candida albicans [1] (ATCC90028, strain ATCC 90028) is less than 0.0039 µg/mL; against Candida albicans [1] (strain MH12), 1 µg/mL (≈ 1.88 µM); in the test on Candida parapsilosis (strain AR Bank #0335), 4 µg/mL (≈ 7.53 µM); with Candida parapsilosis (strain AR Bank #0337) it was 2 µg/mL (≈ 3.76 µM); against Candida parapsilosis (strain AR Bank #0338) it was 0.5 µg/mL (≈ 0.941 µM); in the test with Candida parapsilosis (strain AR Bank #0339) it was 0.25 µg/mL (≈ 0.47 µM). The MIC was 4 µg/mL (≈ 7.53 µM) against Candida glabrata (strain AR Bank #0325); 0.25 µg/mL (≈ 0.47 µM) against Candida glabrata (strain AR Bank #0326); less than 0.0039 µg/mL with Candida auris (setting [5]); less than 0.0039 µg/mL in the test with Candida auris (setting [6]); 0.5 µg/mL (≈ 0.941 µM) in the test with Candida auris (setting [7]).
Consider `Cc1cc(C2CCCCC2)n(O)c(=O)c1` [ciclopirox], for which, in the test with C. albicans, the Development of resistance result was “did not develop”. In addition, in the test on Candida albicans [3], the “Antifungal activity on addition of iron” value is recorded as “abrogated”.
“bathophenanthrolinedisulfonate [BPS, reference compound]”: the “Effect of deletion of IRE1, HAP43 and RIM101 on sensitivity” value in test [4] is “hypersensitive”.
